Data published in PubChem BioAssay (NCI).
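Method: 48-hour compound exposure of cells in 96-well plates, five concentrations, linear interpolation of endpoints. TGI is the concentration that stops growth completely.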

Legend:
Assay in all cases: growth of human tumour cells (NCI), 48 h
[1] = test system: HL-60(TB) leukemia
[2] = test system: LOX IMVI melanoma
[3] = test system: SK-MEL-2 melanoma
[4] = test system: HCC-2998 colon
[5] = test system: M14 melanoma
[6] = test system: NCI-H23 lung
[7] = test system: UACC-257 melanoma
[8] = test system: A549 NSCLC
[9] = test system: EKVX NSCLC
[10] = test system: COLO 205 colon
[11] = test system: OVCAR-5 ovarian
[12] = test system: HOP-62 NSCLC
[13] = test system: NCI-H460 lung
[14] = test system: UACC-62 melanoma
[15] = test system: 786-0 renal
[16] = test system: UO-31 renal
[17] = test system: DU-145 prostate
[18] = test system: MALME-3M melanoma
[19] = test system: SW-620 colon
[20] = test system: A498 renal
[21] = test system: NCI-H522 lung
[22] = test system: SNB-19 CNS
[23] = test system: NCI/ADR-RES ovarian
[24] = test system: HCT-116 colon
[25] = test system: NCI-H226 lung
[26] = test system: SF-295 CNS
[27] = test system: OVCAR-4 ovarian
[28] = test system: RXF 393 renal
[29] = test system: CCRF-CEM leukemia
[30] = test system: BT-549 breast
[31] = test system: SK-MEL-28 melanoma
[32] = test system: MDA-N
[33] = test system: ACHN renal
[34] = test system: MDA-MB-435
[35] = test system: T-47D breast
[36] = test system: SR leukemia
[37] = test system: RPMI-8226 leukemia
[38] = test system: HT29 colon
[39] = test system: HCT-15 colon
[40] = test system: SF-268 CNS
[41] = test system: K-562 leukemia
[42] = test system: MOLT-4 leukemia
[43] = test system: OVCAR-8 ovarian
[44] = test system: HS 578T breast
[45] = test system: MCF7 breast
[46] = test system: IGROV1 ovarian
[47] = test system: HOP-92 NSCLC
[48] = test system: MDA-MB-231 breast
[49] = test system: PC-3 prostate
[50] = test system: CAKI-1 renal
[51] = test system: KM12 colon
[52] = test system: SK-OV-3 ovarian
[53] = test system: SNB-75 CNS
[54] = test system: SK-MEL-5 melanoma
[55] = test system: OVCAR-3 ovarian
[56] = test system: SN12C renal
[57] = test system: U251 CNS
[58] = test system: TK-10 renal
[59] = test system: SF-539 CNS

Compound: COC(=O)C(CCSC)NC(=O)Cc1ccc(C(=O)c2ccccc2)cc1 (centres undefined)
- TGI [1]: > 100 µM
- TGI [2]: > 100 µM
- TGI [3]: > 100 µM
- TGI [4]: > 100 µM
- TGI [5]: > 100 µM
- TGI [6]: > 100 µM
- TGI [7]: > 100 µM
- TGI [8]: > 100 µM
- TGI [9]: > 100 µM
- TGI [10]: > 100 µM
- TGI [11]: > 100 µM
- TGI [12]: > 100 µM
- TGI [13]: > 100 µM
- TGI [14]: > 100 µM
- TGI [15]: > 100 µM
- TGI [16]: > 100 µM
- TGI [17]: > 100 µM
- TGI [18]: > 100 µM
- TGI [19]: > 100 µM
- TGI [20]: > 100 µM
- TGI [21]: > 100 µM
- TGI [22]: > 100 µM
- TGI [23]: 91.5 µM
- TGI [24]: > 100 µM
- TGI [25]: > 100 µM
- TGI [26]: > 100 µM
- TGI [27]: > 100 µM
- TGI [28]: > 100 µM
- TGI [29]: > 100 µM
- TGI [30]: > 100 µM
- TGI [31]: > 100 µM
- TGI [32]: 35.1 µM
- TGI [33]: > 100 µM
- TGI [34]: 93.6 µM
- TGI [35]: > 100 µM
- TGI [36]: > 100 µM
- TGI [37]: > 100 µM
- TGI [38]: 65.5 µM
- TGI [39]: > 100 µM
- TGI [40]: > 100 µM
- TGI [41]: > 100 µM
- TGI [42]: > 100 µM
- TGI [43]: > 100 µM
- TGI [44]: > 100 µM
- TGI [45]: > 100 µM
- TGI [46]: > 100 µM
- TGI [47]: > 100 µM
- TGI [48]: > 100 µM
- TGI [49]: > 100 µM
- TGI [50]: > 100 µM
- TGI [51]: > 100 µM
- TGI [52]: > 100 µM
- TGI [53]: > 100 µM
- TGI [54]: > 100 µM
- TGI [55]: > 100 µM
- TGI [56]: > 100 µM
- TGI [57]: > 100 µM

Compound: Cc1ccnc(NC(NC(=O)c2ccccc2)(C(F)(F)F)C(F)(F)F)c1
- TGI [1]: > 100 µM
- TGI [2]: > 100 µM
- TGI [3]: > 100 µM
- TGI [4]: > 100 µM
- TGI [5]: > 100 µM
- TGI [6]: > 100 µM
- TGI [7]: > 100 µM
- TGI [8]: > 100 µM
- TGI [9]: > 100 µM
- TGI [10]: > 100 µM
- TGI [11]: > 100 µM
- TGI [12]: > 100 µM
- TGI [14]: > 100 µM
- TGI [15]: > 100 µM
- TGI [16]: > 100 µM
- TGI [17]: > 100 µM
- TGI [18]: > 100 µM
- TGI [19]: > 100 µM
- TGI [58]: > 100 µM
- TGI [21]: > 100 µM
- TGI [22]: > 100 µM
- TGI [23]: > 100 µM
- TGI [24]: > 100 µM
- TGI [25]: > 100 µM
- TGI [26]: > 100 µM
- TGI [27]: > 100 µM
- TGI [28]: > 100 µM
- TGI [29]: > 100 µM
- TGI [30]: > 100 µM
- TGI [31]: > 100 µM
- TGI [32]: > 100 µM
- TGI [33]: > 100 µM
- TGI [34]: > 100 µM
- TGI [35]: > 100 µM
- TGI [36]: > 100 µM
- TGI [37]: > 100 µM
- TGI [38]: > 100 µM
- TGI [39]: > 100 µM
- TGI [59]: > 100 µM
- TGI [40]: > 100 µM
- TGI [41]: > 100 µM
- TGI [42]: > 100 µM
- TGI [43]: > 100 µM
- TGI [44]: > 100 µM
- TGI [45]: > 100 µM
- TGI [46]: > 100 µM
- TGI [47]: > 100 µM
- TGI [48]: > 100 µM
- TGI [49]: > 100 µM
- TGI [50]: > 100 µM
- TGI [51]: > 100 µM
- TGI [52]: > 100 µM
- TGI [53]: > 100 µM
- TGI [54]: > 100 µM
- TGI [55]: > 100 µM
- TGI [56]: > 100 µM
- TGI [57]: > 100 µM
